According to ChEMBL document CHEMBL1155993, “5-(2-Pyrimidinyl)-imidazo[1,2-a]pyridines are antibacterial agents targeting the ATPase domains of DNA gyrase and topoisomerase IV” (Bioorg Med Chem Lett, 2009):
Converted amounts (≈) assume the structure as drawn.

Tests used:
[1] = target: DNA gyrase subunit B (Streptococcus pneumoniae serotype 4 (strain ATCC BAA-334 / TIGR4), UniProt P0A4L9); assay: Inhibition of Streptococcus pneumoniae SP-3 gyrB by enzyme coupled phosphate assay
[2] = target: T1, ParE (Streptococcus pneumoniae, UniProt Q7X1P7); assay: Inhibition of Streptococcus pneumoniae SP-3 parE after 30 mins
T1 sequence (Q7X1P7 whole entry): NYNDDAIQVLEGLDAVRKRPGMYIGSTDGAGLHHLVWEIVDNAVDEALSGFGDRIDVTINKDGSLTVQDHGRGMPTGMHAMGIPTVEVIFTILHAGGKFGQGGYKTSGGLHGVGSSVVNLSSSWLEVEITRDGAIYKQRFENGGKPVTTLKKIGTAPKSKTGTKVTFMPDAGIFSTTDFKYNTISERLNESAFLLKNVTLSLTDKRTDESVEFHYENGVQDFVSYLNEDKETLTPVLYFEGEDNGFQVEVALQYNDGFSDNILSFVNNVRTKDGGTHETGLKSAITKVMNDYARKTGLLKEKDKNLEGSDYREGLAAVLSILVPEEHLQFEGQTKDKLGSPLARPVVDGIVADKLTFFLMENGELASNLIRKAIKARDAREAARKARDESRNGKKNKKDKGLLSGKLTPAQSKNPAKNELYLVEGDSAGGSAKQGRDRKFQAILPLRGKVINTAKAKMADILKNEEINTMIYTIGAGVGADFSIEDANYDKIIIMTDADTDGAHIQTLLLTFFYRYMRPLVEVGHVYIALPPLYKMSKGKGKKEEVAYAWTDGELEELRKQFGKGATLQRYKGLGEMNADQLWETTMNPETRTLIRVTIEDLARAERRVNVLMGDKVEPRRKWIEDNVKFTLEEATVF

[3] = system: Staphylococcus aureus; assay: Antibacterial activity against Staphylococcus aureus UC76 by NCCLS method; type: functional, organism-based; settings: read-out: MIC
[4] = system: Streptococcus pyogenes; assay: Antibacterial activity against Streptococcus pyogenes SP1-1 by NCCLS method; type: functional
[5] = system: Streptococcus pneumoniae; assay: Antibacterial activity against Streptococcus pneumoniae SP-3 by NCCLS method; type: functional
[6] = system: Streptococcus pneumoniae; assay: Antibacterial activity against fluoroquinolone resistant Streptococcus pneumoniae SP-3765 by NCCLS method; type: functional
[7] = system: Staphylococcus aureus; assay: Antibacterial activity against methicillin resistant Staphylococcus aureus SA-1417 by NCCLS method; type: functional

DNA gyrase subunit B, sequence (P0A4L9 whole entry): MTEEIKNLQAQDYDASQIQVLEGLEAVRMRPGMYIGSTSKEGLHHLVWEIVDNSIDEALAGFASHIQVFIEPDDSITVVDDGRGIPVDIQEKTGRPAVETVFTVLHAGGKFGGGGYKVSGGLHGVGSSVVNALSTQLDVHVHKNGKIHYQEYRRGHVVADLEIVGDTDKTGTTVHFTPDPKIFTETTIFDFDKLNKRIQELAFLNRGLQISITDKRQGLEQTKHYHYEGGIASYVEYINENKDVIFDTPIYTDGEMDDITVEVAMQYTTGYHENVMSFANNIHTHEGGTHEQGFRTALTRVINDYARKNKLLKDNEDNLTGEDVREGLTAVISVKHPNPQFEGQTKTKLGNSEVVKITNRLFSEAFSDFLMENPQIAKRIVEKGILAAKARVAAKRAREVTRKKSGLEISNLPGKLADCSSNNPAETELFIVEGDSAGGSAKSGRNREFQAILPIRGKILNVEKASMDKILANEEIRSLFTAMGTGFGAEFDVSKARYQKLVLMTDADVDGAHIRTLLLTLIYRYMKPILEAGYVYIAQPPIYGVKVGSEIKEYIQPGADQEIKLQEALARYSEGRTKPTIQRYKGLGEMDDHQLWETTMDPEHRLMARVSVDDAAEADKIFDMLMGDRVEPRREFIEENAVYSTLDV

Row | Structure (SMILES) | IC50 [1] [nM] | IC50 [2] [nM] | MIC [3] [µg/mL] | MIC [4] [µg/mL] | MIC [5] [µg/mL] | MIC [6] [µg/mL] | MIC [7] [µg/mL]
1 | CCNC(=O)Nc1cn2c(-c3nccc(C)n3)cc(-c3cnc(N(C)C)nc3)cc2n1 | 113 | 424 | 0.5 (≈ 1.2 µM) | 0.25 (≈ 0.599 µM) | 0.25 (≈ 0.599 µM) | 0.125 (≈ 0.299 µM) | –
2 | CCNC(=O)Nc1cn2c(-c3ncc(C)cn3)cc(-c3ccn(CCOC)c(=O)c3)cc2n1 | 401 | 1640 | 0.06 (≈ 0.134 µM) | 0.06 (≈ 0.134 µM) | 0.06 (≈ 0.134 µM) | 0.125 (≈ 0.279 µM) | 0.25 (≈ 0.559 µM)
3 | CCCn1ccc(-c2cc(-c3ncc(C)cn3)n3cc(NC(=O)NCC)nc3c2)cc1=O | 97 | 1020 | 0.125 (≈ 0.29 µM) | 0.25 (≈ 0.579 µM) | 0.06 (≈ 0.139 µM) | 0.06 (≈ 0.139 µM) | 0.25 (≈ 0.579 µM)
4 | CCNC(=O)Nc1cn2c(-c3ncc(Cl)cn3)cc(-c3cccnc3)cc2n1 | 149 | 419 | 0.25 (≈ 0.635 µM) | 0.125 (≈ 0.317 µM) | 0.06 (≈ 0.152 µM) | 0.03 (≈ 0.0762 µM) | 0.25 (≈ 0.635 µM)
5 | CCNC(=O)Nc1cn2c(-c3ncc(F)cn3)cc(-c3cccnc3)cc2n1 | 56 | 364 | 1 (≈ 2.65 µM) | 0.5 (≈ 1.32 µM) | 0.125 (≈ 0.331 µM) | 0.125 (≈ 0.331 µM) | –
6 | CCOC(=O)Nc1cn2c(-c3nccc(C)n3)cc(-c3cnc(N(C)C)nc3)cc2n1 | 1380 | 6220 | 64 (≈ 153 µM) | 0.25 (≈ 0.597 µM) | 0.5 (≈ 1.19 µM) | 0.125 (≈ 0.299 µM) | –
7 | CCNC(=O)Nc1cn2c(-c3ncc(CC)cn3)cc(-c3cccnc3)cc2n1 | 353 | 265 | 0.25 (≈ 0.645 µM) | 0.125 (≈ 0.323 µM) | 0.06 (≈ 0.155 µM) | 0.06 (≈ 0.155 µM) | 1 (≈ 2.58 µM)
8 | CCNC(=O)Nc1cn2c(-c3ncc(C)cn3)cc(-c3ccc(C)nc3)cc2n1 | 96 | 373 | 0.5 (≈ 1.29 µM) | 0.25 (≈ 0.645 µM) | 0.5 (≈ 1.29 µM) | 0.25 (≈ 0.645 µM) | 1 (≈ 2.58 µM)
9 | CNC(=O)Nc1cn2c(-c3ncc(C)cn3)cc(-c3cccnc3)cc2n1 | 92 | 629 | 4 (≈ 11.1 µM) | 2 (≈ 5.56 µM) | 1 (≈ 2.78 µM) | 0.25 (≈ 0.696 µM) | –
10 | CCNC(=O)Nc1cn2c(-c3nccc(C4CC4)n3)cc(-c3cccnc3)cc2n1 | 330 | 3750 | 0.5 (≈ 1.25 µM) | 1 (≈ 2.5 µM) | 0.125 (≈ 0.313 µM) | 0.25 (≈ 0.626 µM) | 0.5 (≈ 1.25 µM)
11 | CCNC(=O)Nc1cn2c(-c3ncc(C(C)C)cn3)cc(-c3cccnc3)cc2n1 | 1910 | 1380 | 1 (≈ 2.49 µM) | 0.5 (≈ 1.25 µM) | 0.25 (≈ 0.623 µM) | 0.25 (≈ 0.623 µM) | –
12 | CCNC(=O)Nc1cn2c(-c3ncc(C)cn3)cc(-c3cnc(N(C)C)nc3)cc2n1 | 524 | 1380 | 1 (≈ 2.4 µM) | 0.5 (≈ 1.2 µM) | 0.25 (≈ 0.599 µM) | 0.125 (≈ 0.299 µM) | 4 (≈ 9.58 µM)
13 | CCNC(=O)Nc1cn2c(-c3ncc(C)cn3)cc(-c3ccn(CC)c(=O)c3)cc2n1 | 51 | 624 | 0.25 (≈ 0.599 µM) | 1 (≈ 2.4 µM) | 0.06 (≈ 0.144 µM) | 0.125 (≈ 0.299 µM) | 0.5 (≈ 1.2 µM)
14 | CCNC(=O)Nc1cn2c(-c3ncc(C)cn3)cc(-c3cnc(OC)nc3)cc2n1 | 132 | 3640 | 16 (≈ 39.6 µM) | 32 (≈ 79.1 µM) | 16 (≈ 39.6 µM) | 16 (≈ 39.6 µM) | > 64
15 | CCNC(=O)Nc1cn2c(-c3nccc(C(=O)OC)n3)cc(-c3cccnc3)cc2n1 | 52 | 911 | 8 (≈ 19.2 µM) | 32 (≈ 76.7 µM) | 16 (≈ 38.3 µM) | 16 (≈ 38.3 µM) | 8 (≈ 19.2 µM)
16 | CCNC(=O)Nc1cn2c(-c3ncc(C)cn3)cc(-c3ccc(OC)nc3)cc2n1 | 117 | 147 | 0.5 (≈ 1.24 µM) | 0.5 (≈ 1.24 µM) | 0.25 (≈ 0.62 µM) | 0.125 (≈ 0.31 µM) | 2 (≈ 4.96 µM)

Row | Structure (SMILES) | IC50 [1] [nM] | IC50 [2] [nM] | MIC [3] [µg/mL] | MIC [4] [µg/mL] | MIC [5] [µg/mL] | MIC [6] [µg/mL] | MIC [7] [µg/mL]
17 | CCNC(=O)Nc1cn2c(-c3ncc(C)cn3)cc(-c3ccn(C)c(=O)c3)cc2n1 | – | – | 0.5 (≈ 1.24 µM) | 0.125 (≈ 0.31 µM) | 0.06 (≈ 0.149 µM) | 0.06 (≈ 0.149 µM) | –
18 | Cc1cnc(-c2cc(-c3cccnc3)cc3nc(NC(=O)NC4CC4)cn23)nc1 | 295 | 571 | 64 (≈ 166 µM) | 16 (≈ 41.5 µM) | 1 (≈ 2.59 µM) | 0.25 (≈ 0.649 µM) | > 64
19 | CCCCNC(=O)Nc1cn2c(-c3ncc(C)cn3)cc(-c3cccnc3)cc2n1 | 261 | 4750 | 8 (≈ 19.9 µM) | 2 (≈ 4.98 µM) | 2 (≈ 4.98 µM) | 0.125 (≈ 0.311 µM) | –
20 | CCNC(=O)Nc1cn2c(-c3nc(C)cc(C)n3)cc(-c3cccnc3)cc2n1 | 198 | 541 | 1 (≈ 2.58 µM) | 1 (≈ 2.58 µM) | 0.5 (≈ 1.29 µM) | 0.5 (≈ 1.29 µM) | 4 (≈ 10.3 µM)
21 | CCNC(=O)Nc1cn2c(-c3nc(C(F)(F)F)cc(C(F)(F)F)n3)cc(-c3cccnc3)cc2n1 | 242 | 745 | 2 (≈ 4.04 µM) | 1 (≈ 2.02 µM) | 0.25 (≈ 0.505 µM) | 0.125 (≈ 0.252 µM) | 4 (≈ 8.07 µM)
22 | CCNC(=O)Nc1cn2c(-c3ncc(C)cn3)cc(-c3cncnc3)cc2n1 | 36 | 258 | 0.25 (≈ 0.668 µM) | 0.5 (≈ 1.34 µM) | 0.25 (≈ 0.668 µM) | 0.06 (≈ 0.16 µM) | 1 (≈ 2.67 µM)
23 | CCNC(=O)Nc1cn2c(-c3ncccn3)cc(-c3cncnc3)cc2n1 | 75 | 280 | 0.5 (≈ 1.39 µM) | 0.5 (≈ 1.39 µM) | 0.125 (≈ 0.347 µM) | 0.125 (≈ 0.347 µM) | –
24 | CCNC(=O)Nc1cn2c(-c3ncccn3)cc(-c3cnc(N(C)C)nc3)cc2n1 | 137 | 611 | 1 (≈ 2.48 µM) | 0.25 (≈ 0.62 µM) | 0.125 (≈ 0.31 µM) | 0.125 (≈ 0.31 µM) | –
25 | CCNC(=O)Nc1cn2c(-c3nc(C)cc(C(F)(F)F)n3)cc(-c3cccnc3)cc2n1 | 216 | 546 | 0.5 (≈ 1.13 µM) | 0.5 (≈ 1.13 µM) | 0.25 (≈ 0.566 µM) | 0.125 (≈ 0.283 µM) | 1 (≈ 2.27 µM)
26 | Cc1cnc(-c2cc(-c3cccnc3)cc3nc(NC(=O)N(C)C(F)(F)F)cn23)nc1 | 368 | 504 | 8 (≈ 18.7 µM) | 16 (≈ 37.4 µM) | 0.25 (≈ 0.585 µM) | 0.125 (≈ 0.292 µM) | 4 (≈ 9.36 µM)
27 | CCNC(=O)Nc1cn2c(-c3ncc(C)cn3)cc(-c3ccn(CC(=O)O)c(=O)c3)cc2n1 | 98 | 2140 | 64 (≈ 143 µM) | 64 (≈ 143 µM) | 64 (≈ 143 µM) | 64 (≈ 143 µM) | 32 (≈ 71.5 µM)
28 | CCNC(=O)Nc1cn2c(-c3ncc(S(C)(=O)=O)cn3)cc(-c3cccnc3)cc2n1 | 433 | 1830 | 64 (≈ 146 µM) | 64 (≈ 146 µM) | 8 (≈ 18.3 µM) | 16 (≈ 36.6 µM) | –
29 | CCC(=O)Nc1cn2c(-c3ncc(C)cn3)cc(-c3cccnc3)cc2n1 | 255 | 5000 | 64 (≈ 179 µM) | 16 (≈ 44.6 µM) | 16 (≈ 44.6 µM) | 16 (≈ 44.6 µM) | > 64
30 | CCNC(=O)Nc1cn2c(-c3ncc(C)cn3)cc(-c3cnc(N4CCCC4)nc3)cc2n1 | 244 | 366 | 0.5 (≈ 1.13 µM) | 0.25 (≈ 0.564 µM) | 0.125 (≈ 0.282 µM) | 0.06 (≈ 0.135 µM) | –
31 | CCNC(=O)Nc1cn2c(-c3ncccn3)cc(-c3ccc(C)nc3)cc2n1 | 44 | 119 | 0.25 (≈ 0.669 µM) | 0.25 (≈ 0.669 µM) | 0.06 (≈ 0.161 µM) | 0.06 (≈ 0.161 µM) | –
